These results are taken from the supplement of paper PMC4862054.

Common to all, as to experiment: normalised viability (% of control), CellTiter-Blue; higher = more viable cells (about 100 = DMSO control)
What all share (details): incubation time: 72 h

For assay [1], the system named is CAL-148. The protocol: (§1)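 DSRT, CellTiter-Blue viability, 72 h incubation. Signal is normalised to DMSO and benzethonium chloride controls. Value is the normalised response at dose 8.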
The test system of assay [2] is CAL-51. Here is the method: as §1
Assay [3] relates to CAL-85-1. Here is the method:
as §1

For assay [4], the system named is DU-4475. Here is the method: as §1
Assay [5] deals with HDQ-P1. The protocol:
as §1

The test system of assay [6] is MDA-MB-453. The protocol:
as §1

Assay [7] deals with CAL-148. Here is the method:
(§2)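 DSRT, CellTiter-Blue viability, 72 h incubation. Signal is normalised to DMSO and benzethonium chloride controls. Value is the normalised response at dose 7.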
This is another data set of the same source.

The subject of assay [8] is CAL-51. The protocol: as §2
The source holds these as a separate data set.

The subject of assay [9] is CAL-85-1. Here is the method: as §2
The source holds these as a separate data set.

Assay [10] relates to DU-4475. The protocol: as §2
This is another data set of the same source.

In assay [11] the test system is HDQ-P1. Here is the method: as §2
The source holds these as a separate data set.

Assay [12] has as its system MDA-MB-453. Here is the method: as §2
This is another data set of the same source.

Assay [13] relates to CAL-148. The protocol: (§3)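 DSRT, CellTiter-Blue viability, 72 h incubation. Signal is normalised to DMSO and benzethonium chloride controls. Value is the normalised response at dose 6.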
The source holds these as a separate data set.

Assay [14] concerns CAL-51. The protocol: as §3
This is another data set of the same source.

Assay [15] has as its system CAL-85-1. Here is the method:
as §3
This is another data set of the same source.

The subject of assay [16] is DU-4475. The protocol:
as §3
The source holds these as a separate data set.

The test system of assay [17] is HDQ-P1. Here is the method: as §3
This is another data set of the same source.

Assay [18] concerns MDA-MB-453. Here is the method: as §3
The source holds these as a separate data set.

Turning to `C[C@]12CC[C@@H]3c4ccc(O)cc4C[C@@H](CCCCCCCCC[S+]([O-])CCCC(F)(F)C(F)(F)F)[C@H]3[C@@H]1CC[C@@H]2O` (stereo partly specified) [Fulvestrant] (3000 nM), the normalised viability with CAL-148 [1] was found to be 104%; in the assay on CAL-51 [2] it was 99.7%; in the assay with CAL-85-1 [3] it was 94.6%; with DU-4475 [4], 107%; with HDQ-P1 [5], 90.4%; in the assay with MDA-MB-453 [6], 92.8%.

As for `O=P1(NCCCl)OCCCN1CCCl` (stereo unspecified) [Ifosfamide] (3000 nM), the normalised viability in the assay with CAL-148 [1] turned out to be 106%; in the assay with CAL-51 [2], 97.4%; in the assay on CAL-85-1 [3], 92.9%; with DU-4475 [4] it was 87.2%; in the assay with HDQ-P1 [5], 107%; in the assay with MDA-MB-453 [6], 112%.

On to `CC(C)Cn1cnc2c(N)nc3ccccc3c21` [Imiquimod] (1000 nM), for which the normalised viability was 106% in the assay with CAL-148 [7]; 99.8% in the assay with CAL-51 [8]; 92.8% in the assay with CAL-85-1 [9]; 93.3% with DU-4475 [10]; 86.1% in the assay on HDQ-P1 [11]; 104% with MDA-MB-453 [12].

Turning to `CC(C)Cn1cnc2c(N)nc3ccccc3c21` [Imiquimod] (3000 nM), the normalised viability worked out at 95.5% in the assay on CAL-148 [1]; 107% in the assay with CAL-51 [2]; 107% in the assay on CAL-85-1 [3]; 107% in the assay with DU-4475 [4]; 89.1% in the assay with HDQ-P1 [5]; 95.7% with MDA-MB-453 [6].

As to `CC1(C)NC(=O)N(c2ccc([N+](=O)[O-])c(C(F)(F)F)c2)C1=O` [Nilutamide] (3000 nM), the normalised viability was determined as 99.1% in the assay with CAL-148 [1]; 96.9% in the assay on CAL-51 [2]; 96.8% with CAL-85-1 [3]; 106% in the assay on DU-4475 [4]; 127% in the assay with HDQ-P1 [5]; 99% in the assay on MDA-MB-453 [6].

For the molecule `Cc1ccc(C(=O)Nc2ccc(CN3CCN(C)CC3)c(C(F)(F)F)c2)cc1C#Cc1cnc2cccnn12` [Ponatinib] (30 nM), the normalised viability in the assay on CAL-148 [13] is 106%; in the assay on CAL-51 [14], 86.3%; in the assay with CAL-85-1 [15] it was 90%; with DU-4475 [16], 81.4%; in the assay with HDQ-P1 [17], 97%; in the assay on MDA-MB-453 [18], 85.3%.

On to `Cc1ccc(C(=O)Nc2ccc(CN3CCN(C)CC3)c(C(F)(F)F)c2)cc1C#Cc1cnc2cccnn12` [Ponatinib] (300 nM), for which the normalised viability in the assay with CAL-148 [1] is 87.7%; in the assay with CAL-51 [2] it was 73.9%; in the assay with CAL-85-1 [3], 80.5%; in the assay on DU-4475 [4] it was 73.8%; with HDQ-P1 [5], 58.9%; in the assay on MDA-MB-453 [6], 54.3%.

As to `Cn1c(Nc2ccc(C(F)(F)F)cc2)nc2cc(Oc3ccnc(-c4ncc(C(F)(F)F)[nH]4)c3)ccc21` [RAF265] (30 nM), the normalised viability in the assay with CAL-148 [13] turned out to be 86.2%; in the assay with CAL-51 [14], 89.8%; in the assay on CAL-85-1 [15], 88.9%; in the assay on DU-4475 [16], 111%; in the assay on HDQ-P1 [17] it was 51.7%; in the assay with MDA-MB-453 [18], 88.3%.

For the molecule `Cn1c(Nc2ccc(C(F)(F)F)cc2)nc2cc(Oc3ccnc(-c4ncc(C(F)(F)F)[nH]4)c3)ccc21` [RAF265] (300 nM), the normalised viability stood at 85.5% with CAL-148 [1]; 66.9% in the assay with CAL-51 [2]; 71.5% with CAL-85-1 [3]; 71.3% in the assay with DU-4475 [4]; 39.4% in the assay on HDQ-P1 [5]; 92.5% in the assay on MDA-MB-453 [6].

With `CNCc1ccc(-c2[nH]c3cc(F)cc4c3c2CCNC4=O)cc1` [Rucaparib] (300 nM), the normalised viability with CAL-148 [13] turned out to be 91.7%; in the assay with CAL-51 [14] it was 110%; with CAL-85-1 [15] it was 92.6%; with DU-4475 [16], 77.4%; in the assay with HDQ-P1 [17] it was 43.2%; in the assay on MDA-MB-453 [18] it was 108%.

For the molecule `CNCc1ccc(-c2[nH]c3cc(F)cc4c3c2CCNC4=O)cc1` [Rucaparib] (3000 nM), the normalised viability amounted to 87% with CAL-148 [1]; 102% with CAL-51 [2]; 79.3% in the assay with CAL-85-1 [3]; 87.3% in the assay on DU-4475 [4]; 82.9% in the assay with HDQ-P1 [5]; 87.5% in the assay on MDA-MB-453 [6].

Regarding `N[C@@H](CSC(c1ccccc1)(c1ccccc1)c1ccccc1)C(=O)O` [S-trityl-L-cysteine] (1200 nM), the normalised viability is 114% in the assay with CAL-148 [13]; 78.5% with CAL-51 [14]; 95.1% in the assay on CAL-85-1 [15]; 97.8% in the assay with DU-4475 [16]; 68.4% with HDQ-P1 [17]; 90.5% with MDA-MB-453 [18].

Take `N[C@@H](CSC(c1ccccc1)(c1ccccc1)c1ccccc1)C(=O)O` [S-trityl-L-cysteine] (12000 nM): the normalised viability turned out to be 106% with CAL-148 [1]; 98.6% in the assay on CAL-51 [2]; 36.7% with CAL-85-1 [3]; 114% in the assay on DU-4475 [4]; 84.6% in the assay with HDQ-P1 [5]; 99.1% in the assay on MDA-MB-453 [6].

As to `CN(N=O)C(=O)N[C@@H](C=O)[C@@H](O)[C@H](O)[C@H](O)CO` [Streptozocin] (300 nM), the normalised viability stood at 107% in the assay with CAL-148 [13]; 108% with CAL-51 [14]; 106% in the assay on CAL-85-1 [15]; 97.2% in the assay on DU-4475 [16]; 85.4% with HDQ-P1 [17]; 102% in the assay on MDA-MB-453 [18].

With `CN(N=O)C(=O)N[C@@H](C=O)[C@@H](O)[C@H](O)[C@H](O)CO` [Streptozocin] (3000 nM), the normalised viability in the assay with CAL-148 [1] was 98.7%; with CAL-51 [2], 108%; in the assay on CAL-85-1 [3], 97.8%; in the assay on DU-4475 [4], 95.3%; in the assay on HDQ-P1 [5] it was 110%; with MDA-MB-453 [6], 109%.

`O=C1CCC(N2C(=O)c3ccccc3C2=O)C(=O)N1` (stereo unspecified) [Thalidomide] (300 nM): the normalised viability with CAL-148 [13] came out at 117%; in the assay with CAL-51 [14], 88.4%; in the assay on CAL-85-1 [15], 105%; with DU-4475 [16], 99.6%; in the assay on HDQ-P1 [17], 80.2%; in the assay with MDA-MB-453 [18] it was 103%.

Consider `O=C1CCC(N2C(=O)c3ccccc3C2=O)C(=O)N1` (stereo unspecified) [Thalidomide] (3000 nM), for which the normalised viability in the assay with CAL-148 [1] stood at 113%; with CAL-51 [2], 89.8%; with CAL-85-1 [3], 91.7%; in the assay with DU-4475 [4], 110%; in the assay on HDQ-P1 [5], 99.7%; in the assay with MDA-MB-453 [6], 99.4%.

`CN[C@@H]1C[C@H]2O[C@@](C)([C@@H]1OC)n1c3ccccc3c3c4c(c5c6ccccc6n2c5c31)C(=O)N[C@H]4O` [UCN-01] (300 nM): the normalised viability with CAL-148 [13] worked out at 87%; in the assay with CAL-51 [14], 31.2%; in the assay on CAL-85-1 [15] it was 41.8%; in the assay with DU-4475 [16], 37.6%; in the assay on HDQ-P1 [17] it was 26.2%; with MDA-MB-453 [18] it was 38.4%.

Consider `Clc1ccc(Nc2nnc(Cc3ccncc3)c3ccccc23)cc1` [Vatalanib] (300 nM), for which the normalised viability was found to be 88.5% in the assay with CAL-148 [13]; 98.3% in the assay on CAL-51 [14]; 94.6% in the assay on CAL-85-1 [15]; 95% in the assay with DU-4475 [16]; 78.7% in the assay on HDQ-P1 [17]; 105% in the assay on MDA-MB-453 [18].

As for `CCC1=C[C@@H]2CN(C1)Cc1c([nH]c3ccccc13)[C@@](C(=O)OC)(c1cc3c(cc1OC)N(C)[C@H]1[C@@](O)(C(=O)OC)[C@H](OC(C)=O)[C@]4(CC)C=CCN5CC[C@]31[C@@H]54)C2` [Vinorelbine] (300 nM), the normalised viability in the assay on CAL-148 [13] is 24.5%; in the assay with CAL-51 [14], 35%; in the assay on CAL-85-1 [15], 31.4%; in the assay on DU-4475 [16], 53.9%; in the assay on HDQ-P1 [17], 40.5%; in the assay on MDA-MB-453 [18] it was 25.2%.

With `Oc1nc(-c2ccc(C(F)(F)F)cc2)nc2c1CSCC2` [XAV-939] (300 nM), the normalised viability with CAL-148 [13] was determined as 93.3%; in the assay on CAL-51 [14], 99.3%; in the assay on CAL-85-1 [15], 89.2%; in the assay with DU-4475 [16] it was 116%; in the assay on HDQ-P1 [17] it was 112%; in the assay on MDA-MB-453 [18], 93.8%.
